The source of these data is patent US12240812B2, “Compound for inhibiting PGE2/EP4 signaling transduction inhibiting, preparation method therefor, and medical uses thereof” (Keythera (Suzhou) Pharmaceuticals Co. Ltd., priority 2019, dated 2025).

Where two headings read alike, the source gives them in different places.

Data set [1] relates to PGE2/EP4 signal transduction in MCF7 cells. As to the kind of experiment: Determination of MCF7 cAMP (PGE2-stimulated, HTRF). Type of data set: cell-based. As to conditions: Homo sapiens. How it is done:
• a) MCF7 cells (ATCC, 6000 cells/well/40 μl) were inoculated into a 384-well cell culture plate containing a medium (DMEM containing 10% FBS and 1×PS), and incubated overnight at 37° C. and 5% CO2. • b) The medium was removed, 40 μl/well of serum-free medium was added, and the cells were incubated at 37° C. and 5% CO2 for 5 hours. • c) The medium was replaced with 18 μL/well of HBSS buffer (Hepes 20 mM, 0.1% BSA, 500 μM IBMX). • d) The compound in DMSO was diluted (1/5 dilution, 9+0 dose). • e) 2 μL of the compound in d) was added to 98 μL of HBSS buffer. • f) 1 μL/well of the diluted compound in e) was added to the cells, with a final starting concentration of 1 μM, and the cells were incubated at 37° C. for 1 hour. • g) The cells were stimulated with 1 μL/well of PGE2 (10 mM DMSO stock solution) (final concentration: 10 nM, and DMSO final concentration: 0.2%), and incubated at 37° C. for 30 minutes. • h) After the incubation, 10 μL/well of cAMP-d2 and 10 μL/well of anti-cAMP were added, RT 1 h. • i) HTRF signals (665 nm/615 nm) were read on Envision. Data Analysis: • High control: 1 μM E7046 • Low control: DMSO • Background: 30 μL/well of lysis buffer+10 μL/well of anti-cAMP • Analytical data: original date—background Inhibition %: 100−100×(high control−analytical data)/(high control−low control)
On the technique in general: TR-FRET usually uses a lanthanide donor and a delayed reading to cut background.

Data set [2] in a line: Clearance assay in liver cells. Type of data set: in vitro ADME. As to conditions: cryopreserved mouse liver cells (hepatocytes); mouse (ICR/CD-1, male) cryopreserved liver cells, 0-120 min. How it is done:
• Liver cell type: mouse • Product catalog: M00505 • Species: ICR/CD-1 • Sex: male • Source: BioreoclmationIVT Procedures: • 1. Preparation of working solution • a. 10 mM stock solutions of test compound and positive control were prepared in an appropriate solvent (DMSO). • b. 198 μL of 50% acetonitrile/50% water and 2 μL of 10 mM solution were mixed in a separate conical tube to obtain 100 μM test compound and positive control. • 2. Preparation of liver cells • a. The incubation medium and liver cell thawing medium were placed in a 37° C. water bath, and heated for at least 15 minutes before use. • b. A vial of cryopreserved liver cells was transferred from the storage, ensuring that the vial was kept at a low temperature until the thawing process was conducted. The cells were thawed by placing the vial in a 37° C. water bath and gently shaking the vial for 2 minutes. After completion of the thawing, the vial was sprayed with 70% ethanol and transferred to a biological safety cabinet. • c. The liver cells were transferred to a 50 mL conical tube containing the thawing medium by a large-bore pipette tip. The 50 mL conical tube was placed in a centrifuge and centrifuged at 100 g for 10 minutes. After completion of the centrifugation, the thawing medium was sucked out, and the liver cells were resuspended in enough medium to produce 1.5×10^6 cells/mL. • 3. Procedures of stability assay • a. 198 μL of liver cells were pipetted into each well of a 96-well uncoated plate. The plate was placed in an incubator to warm up the liver cells for 10 minutes. • b. 2 μL of 100 μM test compound or positive control was pipetted into each well of the 96-well uncoated plate to start the reaction. The plate was placed into the incubator at the set time point. • c. The contents of the wells were transferred in 25 μL of aliquots at the time points of 0, 15, 30, 60, 90 and 120 minutes. The aliquot was mixed with 6 volumes (150 μL) of acetonitrile containing internal standard IS (100 nM alprazolam, 200 nM caffeine, and 100 nM tolbutamide) to stop the reaction. The sample was vortex-mixed for 5 minutes, and centrifuged at 3220 g for 45 minutes. An aliquot of 100 μL of supernatant was diluted with 100 μL of ultrapure water, and the mixture was used for LC/MS/MS analysis. All incubations were performed in duplicate. • d. Data analysis
All calculations were performed using Microsoft Excel. The peak area was determined by the extracted ion chromatogram. The in vitro half-life (t½) of the parent compound was determined by the regression analysis of the compound disappearance percentage versus time curve.
The in vitro half-life (t½) was determined by the slope value k: t½=0.693/k
The in vitro t½ (in minutes) was converted to in vitro intrinsic clearance (CLint, in μL/min/0.5×10^6 cells) by using the following equation (average of repeated determinations): […]

The test system of data set [3] is CT-26 colorectal tumor. As to the kind of experiment: Inhibitory effect of compound 6 on CT-26 colorectal tumor in mouse. Type of data set: in vivo. How it is done: Efficacy study on allograft tumor: each 6-week-old female BALB/c mouse was subcutaneously inoculated with 1×10^6 CT26 cancer cells (National Experimental Cell Resource Sharing Service Platform, Resource Number 3111CCCC). When the tumor reached about 60 to 80 mm^3, the tumor-bearing mice were randomly grouped to the vehicle group or treatment group. Compound 6 was administered orally (p.o.) in a 0.5% MC suspension at a dose of 10, 30 or 150 mg/kg, once a day. The mice in the vehicle group were orally administered with distilled water every day, and the administration time was the same as that of the compound 6 group. The tumor volume and body weight were recorded 2 to 3 times a week.

[4] abbreviates: MCF7 cells, 10 nM PGE2 stimulation, cAMP HTRF, read-out: MCF7 cAMP IC50.

Regarding `O=C(NC1(C23CC(C(=O)O)(C2)C3)CC1)c1cccc2ccn(Cc3ccc(C(F)(F)F)cc3)c12` [Compound 1, 3-(1-(1-(4-(Trifluoromethyl)benzyl)-1H-indole-7-carboxamido)cyclopropyl)bicyclo[1.1.1]pentane-1-carboxylic acid], in data set [1] (setting [4]), the IC50 (usually the concentration at which inhibition is half-maximal) was determined as 2.4 nM. Also, the intrinsic clearance (hepatocyte CLint) (usually the rate of metabolic loss divided by the concentration) at 1 µM in data set [2] came out at 7.1 µL/min/1e6 cells.

On to `O=C(NC1(C23CC(C(=O)O)(C2)C3)CC1)c1cccc2ccn(Cc3ccc(-c4ccccc4)cn3)c12` [Compound 2, 3-(1-(1-((5-Phenylpyridin-2-yl)methyl)-1H-indole-7-carboxamido)cyclopropyl)bicyclo[1.1.1]pentane-1-carboxylic acid], for which the IC50 in data set [1] (setting [4]) was 0.89 nM. In data set [2], this compound had an intrinsic metabolic clearance (hepatocyte CLint) at 1 µM of 19 µL/min/1e6 cells.

`O=C(NC1(C23CC(C(=O)O)(C2)C3)CC1)c1cc(Cl)cc2ccn(Cc3ccc(-c4ccccc4)cn3)c12` [Compound 7, 3-(1-(5-Chloro-1-((5-phenylpyridin-2-yl)methyl)-1H-indole-7-carboxamido)cyclopropyl)bicyclo[1.1.1]pentane-1-carboxylic acid]: the IC50 in data set [1] (setting [4]) turned out to be 0.13 nM. The hepatocyte CLint at 1 µM in data set [2] amounted to 34 µL/min/1e6 cells.

In the case of `O=C(NC1(C23CCC(C(=O)O)(CC2)CC3)CC1)c1cccc2ccn(Cc3ccc(C(F)(F)F)cc3)c12` [Compound 9, 4-(1-(1-(4-(Trifluoromethyl)benzyl)-1H-indole-7-carboxamido)cyclopropyl)bicyclo[2.2.2]octane-1-carboxylic acid], in data set [1] (setting [4]), the half-maximal inhibitory concentration (IC50) amounted to 1.1 nM. In data set [2], this compound displayed a hepatocyte CLint at 1 µM of 20 µL/min/1e6 cells.

As to `O=C(NC1(C23CC(C(=O)O)(C2)C3)CC1)c1cccc2ccn(Cc3cc4cc(F)ccc4o3)c12` [Compound 21, 3-(1-(1-((5-Fluorobenzofuran-2-yl)methyl)-1H-indole-7-carboxamido)cyclopropyl)bicyclo[1.1.1]pentane-1-carboxylic acid], in data set [1] (setting [4]), the half-inhibitory concentration (IC50) was determined as 0.9 nM. Also, the hepatocyte CLint at 1 µM in data set [2] stood at 1.93 µL/min/1e6 cells.

As for `O=C(NC1(C23CC(C(=O)O)(C2)C3)CC1)c1cncc2ccn(Cc3cc4ccccc4o3)c12` [Compound 25, 3-(1-(1-(benzofuran-2-ylmethyl)-1H-pyrrolo[3,2-c]pyridine-7-carboxamido)cyclopropyl)bicyclo[1.1.1]pentane-1-carboxylic acid], the IC50 in data set [1] (setting [4]) was 1.5 nM. The hepatocyte CLint at 1 µM in data set [2] was found to be 1.35 µL/min/1e6 cells.

Regarding `[2H]C([2H])(c1cc2ccccc2o1)n1ccc2cccc(C(=O)NC3(C45CC(C(=O)O)(C4)C5)CC3)c21` [Compound 30, 3-(1-(1-(1-Benzofuran-2-ylmethyl-d2)-1H-indole-7-carboxamido)cyclopropyl)bicyclo[1.1.1]pentane-1-carboxylic acid], the IC50 in data set [1] (setting [4]) amounted to 1.1 nM.

`[2H]C1([2H])C([2H])([2H])C1(NC(=O)c1cccc2ccn(Cc3cc4ccccc4o3)c12)C12CC(C(=O)O)(C1)C2` [Compound 31]: the IC50 in data set [1] (setting [4]) stood at 1.2 nM.

For the compound `O=C(NC1(C23CC(C(=O)O)(C2)C3)CC1)c1cc(F)cc2ccn(Cc3cc4ccccc4o3)c12` [Compound 32], in data set [1] (setting [4]), the half-inhibitory concentration (IC50) was 0.75 nM.

Regarding `C[C@H](NC(=O)c1c(C(F)F)nn(C)c1Oc1cccc(C(F)(F)F)c1)c1ccc(C(=O)O)cc1` [Compound E7046, (S)-4-(1-(3-(difluoromethyl)-1-methyl-5-(3-(trifluoromethyl)phenoxy)-1H-pyrazole-4-carboxamido)ethyl)benzoic acid, reference compound], the 50% inhibitory concentration (IC50) in data set [1] (MCF7, read-out: MCF7 cAMP IC50) was found to be 11.2 nM. Moreover, in data set [2], the hepatocyte CLint at 1 µM amounted to 20.1 µL/min/1e6 cells. Also, the “effect on the growth of CT-26 tumor” value in data set [3] (BALB/c mice, CT26 allograft, administered alone, different doses (compound 6: 10, 30 or 150 mg/kg p.o. once a day), FIG. 1) is listed as “significant inhibitory effect”. Also, in data set [3] (CT-26 colorectal cancer model, FIG. 2), the “effect on the body weight of mouse” value is given as “no significant effect”.

Regarding `O=C(O)c1ccc(C2(NC(=O)c3cccc4ccn(Cc5ccc(C(F)(F)F)cc5)c34)CC2)cc1` [MF-766, 4-(1-(1-(4-(trifluoromethyl)benzyl)-1H-indole-7-carboxamido)cyclopropyl)benzoic acid, reference compound], the concentration for half-maximal inhibition (IC50) in data set [1] (MCF7, read-out: MCF7 cAMP IC50) worked out at 1.3 nM. The hepatocyte CLint at 1 µM in data set [2] came to 12.5 µL/min/1e6 cells.
